# System: Ph9F-1x
# Test: Adipogenesis of fish adipose-derived cell line (AdipoRed / Hoechst 33342 staining)
# Assay type: cell-based, Pangasianodon hypophthalmus
# Details: for adipogenesis induction efficiency: addition to adipogenesis induction composition (FIGS. 22 and 25)
# Protocol: Adipogenesis of adipose-derived cells were induced. The cells were resuspended at cell density of 100,000 cells/ml of complete growth medium and seeded at 100 μl/well into gelatin-coated 96-well flat-bottom black plates. The cells were incubated at 28° C. in a humidified atmosphere containing 5% CO2. […] After 3 and 6 days of adipogenic induction, the cells were induced with DMEM, 15% FBS, 0.1% fish serum, 300 U/ml of penicillin, 300 μg/mL of streptomycin, and adipogenic induction cocktail 2, containing 167 nM of insulin. Linoleic acid-oleic acid albumin (LAOA, Sigma-Aldrich), docosahexaenoic acid (DHA, Cayman Chemical), eicosapentaenoic acid (EPA, Cayman Chemical), oleic acid albumin (OAA, Sigma Aldrich), and linoleic acid albumin (LAA, Sigma Aldrich) can also be added to the adipogenic induction cocktail, if required. […] The cells were imaged using N-STORM/TIRF microscope and analysed using NIS-Element software.
# [1] = 100 μM vitamin, Essential 6, fish serum, LAOA, IBMX, dexamethasone, after 6 days
Molecule,percentage of matured adipocytes [1],total lipid content [1],also measured
"CC/C=C\C/C=C\C/C=C\C/C=C\C/C=C\C/C=C\CCC(=O)O [DHA, docosahexaenoic acid]",–,–,"nuclei count after adipogenesis (100 μM, final 3 days of adipogenesis): significantly reduced"
C=C1CC[C@H](O)C/C1=C/C=C1\CCC[C@]2(C)[C@@H]([C@H](C)CCCC(C)C)CC[C@@H]12 [vitamin D3],did not significantly enhance,did not significantly enhance,"total lipid content of matured adipocyte (intensity) (100 μM, 6 days, AdipoRed fluorescence intensity, borderline statistical significance): 3.5×10^9; adipogenesis induction efficiency: no adverse effects"
O=C(O)CCCC[C@@H]1SC[C@@H]2NC(=O)N[C@@H]21 [biotin],did not significantly enhance,did not significantly enhance,–
oleic acid albumin [OAA],–,–,"percentage of matured adipocytes (100 μM, 6 days, as compared to LAA): significantly enhanced"
O=C1O[C@H]([C@@H](O)CO)C(O)=C1O [vitamin C],–,–,adipogenesis induction efficiency: no adverse effects
CC(=O)Oc1c(C)c(C)c2c(c1C)CCC(C)(CCC[C@H](C)CCC[C@H](C)CCCC(C)C)O2 (stereo partly drawn) [α-tocopherol acetate],did not significantly enhance,did not significantly enhance,–
CC(C)(CO)[C@H](O)C(=O)NCCC(=O)O [D-pantothenic acid],did not significantly enhance,did not significantly enhance,–
